Assay results from US20070179161A1, “Pyrazolopyrimidine compounds and their use in medicine” (VERNALIS (CAMBRIDGE) LIMITED., priority 2003, published 2007).

Key:
Type in all cases: biochemical
[1] = target: T1, PDK1 enzyme (Homo sapiens, UniProt O15530); assay: PDK1 kinase inhibition assay (33P phosphorylation of synthetic peptide, filter plate); details: 0.01 mM ATP, 60 min at 30° C.; read-out: PDK1 IC50
T1 sequence (O15530 1-556): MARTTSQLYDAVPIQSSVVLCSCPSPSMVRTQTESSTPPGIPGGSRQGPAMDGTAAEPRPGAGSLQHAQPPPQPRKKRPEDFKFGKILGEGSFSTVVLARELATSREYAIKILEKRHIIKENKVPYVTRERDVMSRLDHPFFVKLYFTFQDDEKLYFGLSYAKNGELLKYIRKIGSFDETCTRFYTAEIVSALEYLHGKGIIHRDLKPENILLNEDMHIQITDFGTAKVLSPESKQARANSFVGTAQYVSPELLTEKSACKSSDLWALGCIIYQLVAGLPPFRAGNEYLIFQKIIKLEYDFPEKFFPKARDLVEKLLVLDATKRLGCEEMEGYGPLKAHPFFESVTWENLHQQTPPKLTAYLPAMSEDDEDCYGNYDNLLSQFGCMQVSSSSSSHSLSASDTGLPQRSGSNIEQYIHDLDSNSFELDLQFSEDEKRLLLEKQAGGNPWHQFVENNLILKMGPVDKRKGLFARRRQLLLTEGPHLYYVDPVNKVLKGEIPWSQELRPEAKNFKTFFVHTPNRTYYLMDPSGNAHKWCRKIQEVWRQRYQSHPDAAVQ
Experimental: (§1) The assay mixture containing the inhibitor and PDK1 enzyme was mixed together in a microtiter plate in a final volume of 50 μl and incubated for 60 min at 30° C. The assay mixture contained 0.01 mM unlabeled ATP, 0.01 μCi/μl ^33P-γ-ATP, 0.075 mM peptide, 0.1 mg/ml BSA, 7.5 mM magnesium acetate, 0.05M Tris.HCl, pH 7.5, 0.5% 2-mercaptoethanol. The reaction was stopped by adding 50 μl of 50 mM phosphoric acid. 90 μl of the mixture were transferred to a pre-wetted 96-well Multiscreen MAPHNOB filtration plate (Millipore) and filtered on a vacuum manifold. […] The filtration plate was dried for 10 min at 65° C., scintillant added and phosphorylated peptide quantified in a scintillation counter (Trilux, PerkinElmer)

[2] = target: CDK-2 enzyme, complexed with cyclin A (Homo sapiens, UniProt P24941); assay: CDK2 enzyme inhibition assay (33P phosphorylation of peptide […], filter plate); details: CDK-2/cyclin A, 0.1 mM ATP, 40 min at 30° C.
Experimental: as §1, with “and CDK-2 enzyme, complexed with cyclin A (0.4 U/ml)” for “and PDK1 enzyme”, “for 40” for “for 60”, “contained 0.1” for “contained 0.01”, “^33P-γ-ATP, 0.03” for “^33P-γ-ATP, 0.075”, “acetate, 50 mM HEPES-NaOH,” for “acetate, 0.05M Tris.HCl,”, “pH 7.5.” for “pH 7.5, 0.5% 2-mercaptoethanol.”
HEPES is N-[2-Hydroxyethyl]piperazine-N′-[2-ethanesulfonic acid] BSA is bovine serum albumin.

[3] = target: T2, GST-Chk1 enzyme (Homo sapiens, UniProt O14757); assay: Chk1 kinase inhibition assay (33P phosphorylation of Chktide, filter plate); details: 0.01 mM ATP, 11 nM GST-Chk1, 40 minutes at 30° C.; read-out: Chk1 IC50
T2 sequence (O14757 1-476): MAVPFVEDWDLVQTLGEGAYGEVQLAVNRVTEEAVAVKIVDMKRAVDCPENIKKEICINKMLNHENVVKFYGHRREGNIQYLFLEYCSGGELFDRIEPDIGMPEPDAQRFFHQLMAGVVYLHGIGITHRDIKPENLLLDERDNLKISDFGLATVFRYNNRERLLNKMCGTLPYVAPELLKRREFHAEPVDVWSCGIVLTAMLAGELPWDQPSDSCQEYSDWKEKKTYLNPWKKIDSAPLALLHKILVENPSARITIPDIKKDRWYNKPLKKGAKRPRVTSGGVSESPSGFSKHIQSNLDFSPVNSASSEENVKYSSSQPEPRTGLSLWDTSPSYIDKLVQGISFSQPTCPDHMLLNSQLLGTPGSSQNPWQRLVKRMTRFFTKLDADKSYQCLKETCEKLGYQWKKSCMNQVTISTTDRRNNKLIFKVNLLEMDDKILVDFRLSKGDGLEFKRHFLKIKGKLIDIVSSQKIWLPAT
Experimental: The assay mixture containing the inhibitor and Chk1 enzyme was mixed together in a microtiter plate in a final volume of 50 μl and incubated for 40 minutes at 30° C.
The reaction was stopped by adding 50 μl of 50 mM phosphoric acid. 90 μl of the mixture was transferred to a pre-wetted 96-well Multiscreen MAPHNOB filtration plate (Millipore) and filtered on a vacuum manifold. […] The filtration plate was dried for 10 min at 65° C., scintillant added and phosphorylated peptide quantified in a scintillation counter (Trilux, PerkinElmer)

Row | Structure (SMILES) | IC50 [1] [µM] | IC50 [2] [µM] | IC50 [3] [µM]
1 | Cc1cccc(-c2cc(Nc3ccc(S(=O)(=O)Nc4nccs4)cc3)n3nccc3n2)c1 [Example 17] | 31.6 | 3.17 | > 200
2 | CC(C)c1cnn2c(Nc3ccc(S(=O)(=O)N(C)C)cc3)cc(NC3CCCCC3)nc12 [Example 63] | > 200 | 0.355 | > 200
3 | O=S(=O)(Nc1nccs1)c1ccc(Nc2cc(OC3CCCCC3)nc3ccnn23)cc1 [Example 14] | 24.6 | 0.59 | > 200
4 | Cc1cccc(-c2cc(Nc3ccc(S(=O)(=O)Nc4ccccn4)cc3)n3nccc3n2)c1 [Example 18] | > 200 | 0.96 | 52.4
5 | CC(C)c1cnn2c(Nc3ccc(S(=O)(=O)N(C)C)cc3)cc(NC3CCN(C)CC3)nc12 [Example 69] | 31.6 | 0.181 | 19.3
6 | CC(C)c1cnn2c(Nc3ccc(S(=O)(=O)N(C)C)cc3)cc(N3CCCCC3)nc12 [Example 50] | > 200 | 1.01 | > 200
7 | CC(C)Oc1cc(Nc2ccc(S(=O)(=O)N(C)C)cc2)n2ncc(C(C)C)c2n1 [Example 64] | > 200 | 0.395 | > 200
8 | Oc1ccc(-c2cc(Nc3cccc(Cl)c3)n3nccc3n2)cc1 [Example 5] | > 200 | 3.96 | > 200
9 | CC(C)c1cnn2c(Nc3ccc(S(=O)(=O)N(C)C)cc3)cc(OCC3CCCN3C)nc12 (stereo not drawn) [Example 65] | > 200 | 1.09 | > 200
10 | CC(C)COc1cc(Nc2ccc(S(=O)(=O)N(C)CCN(C)C)cc2)n2ncc(C(C)C)c2n1 [Example 72] | > 200 | 1.28 | 8.4
11 | CS(=O)(=O)c1ccc(Nc2cc(OC3CCCCC3)nc3ccnn23)cc1 [Example 21] | > 200 | 1.32 | > 200
12 | CC(C)c1cnn2c(Nc3ccc(S(=O)(=O)N(C)CCN(C)C)cc3)cc(Cl)nc12 [Example 60] | > 200 | 0.04 | > 200
13 | CCc1cnn2c(Nc3ccc(S(C)(=O)=O)cc3)cc(N(C)C)nc12 [Example 45] | > 200 | 1.13 | > 200
14 | NS(=O)(=O)c1ccc(Nc2ccnc3ccnn23)cc1 [Example 20] | > 200 | 1.76 | > 200
15 | Oc1ccc(-c2cc(Nc3ccccc3)n3nccc3n2)cc1 [Example 4] | > 200 | 3.76 | > 200
16 | CCc1cnn2c(Nc3ccc(S(C)(=O)=O)cc3)ccnc12 [Example 47] | > 200 | 0.727 | > 200
17 | CC(C)c1cnn2c(Nc3ccc(S(C)(=O)=O)cc3)cc(N(C)CCO)nc12 [Example 59] | > 200 | 0.768 | > 200
18 | CCc1cnn2c(Nc3ccc(S(=O)(=O)N(C)C)cc3)cc(Cl)nc12 [Example 52] | > 200 | 0.239 | > 200

Continued, values first:

Row | IC50 [1] [µM] | IC50 [2] [µM] | IC50 [3] [µM] | Structure (SMILES)
19 | > 200 | 22.1 | > 200 | CC(C)c1cnn2c(Nc3ccc(S(=O)(=O)N(C)C)cc3)cc(NCCCN3CCN(C)CC3)nc12 [Example 124]
20 | > 200 | 1.42 | 0.63 | CN(C)S(=O)(=O)c1ccc(Nc2cc(N[C@H]3CC[C@H](N)CC3)nc3c(-c4ccsc4)cnn23)cc1 [Example 154]
21 | 0.178 | 0.022 | 1.03 | CN(C)S(=O)(=O)c1ccc(Nc2cc(N[C@H]3CC[C@H](N)CC3)nc3c(C4CC4)cnn23)cc1 [Example 128]
22 | > 200 | 0.177 | > 200 | CC(C)c1cnn2c(Nc3ccc(S(=O)(=O)N(C)C)cc3)cc(N3CCCC3CO)nc12 (stereo not drawn) [Example 104]
23 | > 200 | 0.84 | 16.3 | CC(C)c1cnn2c(Nc3ccc(S(=O)(=O)N(C)C)cc3)cc(N(C)C3CCN(C)CC3)nc12 [Example 87]
24 | > 200 | 7.89 | > 200 | CCNC(=O)c1cc(Nc2ccc(S(=O)(=O)N(C)C)cc2)n2ncc(C(C)C)c2n1 [Example 115]
25 | > 200 | 23.3 | > 200 | CC(C)c1cnn2c(Nc3ccc(S(=O)(=O)N(C)C)cc3)cc(C(=O)O)nc12 [Example 117]
26 | 29.3 | 0.005 | > 200 | CN(C)S(=O)(=O)c1ccc(Nc2cc(Cl)nc3c(C4CC4)cnn23)cc1 [Example 127]
27 | 2.56 | 0.682 | > 200 | CC(C)c1cnn2c(Nc3ccc(S(=O)(=O)N(C)C)cc3)cc(NCC3CCNCC3)nc12 [Example 80]
28 | > 200 | 10.5 | > 200 | CC(C)c1cnn2c(Nc3ccc(S(=O)(=O)N(C)C)cc3)cc(N3CCCC(C(=O)N(C)C)C3)nc12 (stereo not drawn) [Example 92]
29 | 30.3 | 0.092 | 29.3 | CCN(CC)[C@H]1CC[C@H](Nc2cc(Nc3ccc(S(=O)(=O)N(C)C)cc3)n3ncc(C(C)C)c3n2)CC1 [Example 100]
30 | 5.29 | 3.66 | 0.5 | CN(C)S(=O)(=O)c1ccc(Nc2cc(N[C@H]3CC[C@@H](N)CC3)nc3c(Br)cnn23)cc1 [Example 140]
31 | 2.58 | 0.15 | 0.07 | N[C@H]1CC[C@@H](Nc2cc(Nc3ccc(S(=O)(=O)N4CCCC4)cc3)n3ncc(Br)c3n2)CC1 [Example 178]
32 | > 200 | 5.98 | > 200 | CC(C)c1cnn2c(Nc3ccc(S(=O)(=O)N(C)C)cc3)cc(N3CCC(CN(C)C)CC3)nc12 [Example 105]
33 | 57 | 0.14 | 10 | CCc1cnn2c(Nc3ccc(C(N)=O)cc3)cc(Cl)nc12 [Example 149]
34 | 2 | 0.054 | 2 | N[C@H]1CC[C@H](Nc2cc(Nc3ccc(Oc4ccccc4)cc3)n3ncc(Cl)c3n2)CC1 [Example 187]
35 | > 200 | 7.5 | 18.7 | CC(C)c1cnn2c(Nc3ccc(S(=O)(=O)N(C)C)cc3)cc(NCCN)nc12 [Example 98]
36 | > 200 | 1.48 | > 200 | CC(C)c1cnn2c(Nc3ccc(S(=O)(=O)N(C)C)cc3)cc(N3CCC(C(N)=O)CC3)nc12 [Example 73]
37 | 6.91 | 0.128 | 0.953 | CC(C)c1cnn2c(Nc3ccc(S(=O)(=O)N(C)CCN(C)C)cc3)cc(N[C@H]3CC[C@H](N)CC3)nc12 [Example 99]
38 | 64.2 | 1.86 | 24.9 | CC(C)c1cnn2c(Nc3ccc(S(=O)(=O)N(C)C)cc3)cc(N3CCC(CN)CC3)nc12 [Example 95]
